Activity calls are given as the source filed them. No cut-off for these calls is given here.
Key:
[1] = biological target: T1, 17-beta-hydroxysteroid dehydrogenase type 1 (Homo sapiens, UniProt P14061); experiment: Inhibition of 17beta-HSD1 in human T47D cells expressing estrogen receptor assessed as conversion of [14C]-E1 to [14C]-E2 after 24 hrs; assay type: cell-based
T1 sequence (P14061 whole entry): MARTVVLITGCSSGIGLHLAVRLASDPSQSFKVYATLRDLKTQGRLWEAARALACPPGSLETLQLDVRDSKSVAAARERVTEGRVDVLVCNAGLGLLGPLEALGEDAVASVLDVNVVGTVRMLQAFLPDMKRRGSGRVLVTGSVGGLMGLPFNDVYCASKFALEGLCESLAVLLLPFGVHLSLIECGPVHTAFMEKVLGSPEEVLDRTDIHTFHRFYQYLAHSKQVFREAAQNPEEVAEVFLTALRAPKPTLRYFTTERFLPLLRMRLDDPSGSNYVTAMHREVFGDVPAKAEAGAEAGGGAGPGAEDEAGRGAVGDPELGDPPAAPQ

T47D [2] = experiment: Estrogenic activity in human T47D cells expressing estrogen receptor assessed as stimulation cell growth at 1 uM after 7 days relative to control
[3] = biological target: T2, 17-beta-hydroxysteroid dehydrogenase type 1 (Homo sapiens) (UniProt P14061); experiment: Inhibition of 17beta-HSD1 in human T47D cells expressing estrogen receptor assessed as conversion of [14C]-E1 to [14C]-E2 at 0.3 uM after 24 hrs; assay type: cell-based
T2 sequence (whole entry): T1 sequence (P14061 whole entry)

[4] = biological target: T2, 17-beta-hydroxysteroid dehydrogenase type 1 (Homo sapiens); experiment: Inhibition of 17beta-HSD1 in human T47D cells expressing estrogen receptor assessed as conversion of [14C]-E1 to [14C]-E2 at 5 uM after 24 hrs; assay type: cell-based
T47D [5] = experiment: Estrogenic activity in human T47D cells expressing estrogen receptor assessed as stimulation cell growth at 0.1 uM after 7 days relative to control

| IC50 [1] | inhibition [3] | inhibition [4] | SMILES | Activity (T47D [2]) | Activity (T47D [5]) |
| --- | --- | --- | --- | --- | --- |
| 1000 nM | 20% | 75% | C[C@]12CC[C@@H]3c4ccc(O)cc4CC[C@H]3[C@@H]1C[C@@H]1[C@@H](Cc3cccc(C(N)=O)c3)C(=O)O[C@@H]12 | inactive | inactive |
|  | 85% | 90% | C[C@]12CC[C@@H]3c4ccc(O)cc4CC[C@H]3[C@@H]1C[C@H](Cc1cccc(C(N)=O)c1)[C@@H]2O | 83% | 48% |

From ChEMBL document CHEMBL1828522, “Synthesis and preliminary evaluation of a modified estradiol-core bearing a fused γ-lactone as non-estrogenic inhibitor of 17β-hydroxysteroid dehydrogenase type 1” (Bioorg Med Chem Lett, 2011)
